The values below are quoted from earlier work in patent US20210338635A1, “Dosage Regimen for the Treatment of Multiple Sclerosis with a S1P Receptor Modulator” (Argentum Pharmaceuticals LLC, priority 2020, published 2021).

For data set [1] the following is noted: administration of 1.25 mg; healthy patients; treatment initiation.
The conditions of data set [2]: humans; relapsing multiple sclerosis, oral.

As to `CCc1cc(/C(C)=N/OCc2ccc(C3CCCCC3)c(C(F)(F)F)c2)ccc1CN1CC(C(=O)O)C1` [BAF-312, 1-({4-[(1E)-1-({[4-Cyclohexyl-3(trifluoromethyl)phenyl]methoxy}imino)ethyl]-2-ethylphenyl}methyl)azetidine-3-carboxylic acid], the “decrease in heart rate” value in data set [1] is given as “approximately 8 beets/min”. Turning to `CCCCCCCCc1ccc(CCC(N)(CO)CO)cc1` [FTY720], in data set [2], the “efficacy in the treatment of multiple sclerosis” value is given as “efficacy in the treatment of multiple sclerosis has been shown in humans”.
